Calls of active or inactive are those of the source. The rule behind the calls is not given here.
Legend:
[1] = tested on: MCF7; test: Induction of degradation of MYC protein in human MCF7 cells at 0.5 to 5 uM by Western blot analysis; assay type: functional, cell-based; conditions: dose 0.5-5 µM
[2] = Toxicity in Balb/c mouse xenografted with human MCF7 cells assessed as cellular morphology in liver at 5 mg/kg, ip every other day measured upto 20 days; assay type: organism-based; conditions: in vivo, 480 h, time < 20 day
[3] = Toxicity in Balb/c mouse xenografted with human MCF7 cells assessed as body weight loss at 5 mg/kg, ip every other day measured upto 20 days; assay type: organism-based; conditions: in vivo, 480 h, time < 20 day
[4] = molecular target: T1, von Hippel-Lindau disease tumor suppressor/Aromatase (Homo sapiens, UniProt P11511+P40337); test: PROTAC activity at human ARO/VHL E3 ligase in human MCF-7 cells assessed as degradation of ARO incubated for 24 hrs by Western blot analysis; assay type: cell-based; conditions: mcf7, 24 h
[5] = tested on: MCF7; test: Antitumor activity against human MCF7 cells xenografted in Balb/c mouse model assessed as tumor growth inhibition at 5 mg/kg, ip every other day measured upto 20 days; assay type: functional, organism-based; conditions: time <= 20.0 day
[6] = tested on: MCF7; test: Antiproliferative activity against human resistant MCF7 cells harboring EGFR assessed as cell viability incubated for 96 hrs by CCK8 assay; conditions: MCF7, 96 h
[7] = Toxicity in Balb/c mouse xenografted with human MCF7 cells assessed as cellular morphology in heart at 5 mg/kg, ip every other day measured upto 20 days; assay type: organism-based; conditions: in vivo, 480 h, time < 20 day
[8] = tested on: MCF7; test: Reduction in ERS1 mRNA expression in resistant human MCF7 cells harboring ERalpha D538G mutant at 5 uM by real-time quantitative polymerase chain reaction (RT-qPCR) analysis; assay type: functional, cell-based
[9] = tested on: MCF7; test: Reduction in ERS1 mRNA expression in resistant human MCF7 cells harboring EGFR at 5 uM by real-time quantitative polymerase chain reaction (RT-qPCR) analysis; assay type: functional, cell-based
[10] = Anti-proliferative activity against human MCF-10A cells incubated for 96 hrs by CCK8 assay; assay type: toxicity, cell-based
[11] = tested on: MCF7; test: Reduction in ERS1 mRNA expression in resistant human MCF7 cells harboring ERalpha Y537S mutant at 5 uM by real-time quantitative polymerase chain reaction (RT-qPCR) analysis; assay type: functional, cell-based
[12] = Toxicity in Balb/c mouse xenografted with human MCF7 cells assessed as cellular morphology in kidney at 5 mg/kg, ip every other day measured upto 20 days; assay type: organism-based; conditions: in vivo, 480 h, time < 20 day
[13] = molecular target: T1, von Hippel-Lindau disease tumor suppressor/Aromatase; test: PROTAC activity at human ARO/VHL E3 ligase in human MCF-7 cells assessed as degradation of ARO at 1 uM incubated for 24 hrs by Western blot analysis; assay type: cell-based; conditions: mcf7, 24 h
[14] = tested on: MCF7; test: Induction of degradation of MYC protein in human MCF7 cells harboring ERalpha Y537S mutant at 0.5 to 5 uM by Western blot analysis; assay type: functional, cell-based; conditions: dose 0.5-5 µM
[15] = tested on: MCF7; test: Anti-proliferative activity against ERalpha positive human MCF7 cells incubated for 96 hrs by CCK8 assay; conditions: MCF7, 96 h
[16] = tested on: MCF7; test: Reduction in MYC mRNA expression in resistant human MCF7 cells harboring EGFR at 5 uM by real-time quantitative polymerase chain reaction (RT-qPCR) analysis; assay type: functional, cell-based
[17] = tested on: MCF7; test: Induction of degradation of MYC protein in human MCF7 cells harboring ERalpha D538G mutant at 0.5 to 5 uM by Western blot analysis; assay type: functional, cell-based; conditions: dose 0.5-5 µM
[18] = tested on: MCF7; test: Reduction in MYC mRNA expression in resistant human MCF7 cells harboring ERalpha D538G mutant at 5 uM by real-time quantitative polymerase chain reaction (RT-qPCR) analysis; assay type: functional, cell-based
[19] = molecular target: T1, von Hippel-Lindau disease tumor suppressor/Aromatase; test: PROTAC activity at human ARO/VHL E3 ligase in human MCF-7 cells assessed as degradation of ARO at 1 uM incubated for 24 hrs in presence of MG132 by Western blot analysis; assay type: cell-based; conditions: mcf7, 24 h
[20] = tested on: MCF7; test: Antiproliferative activity against human resistant MCF7 cells harboring ERalpha D538G mutant at LBD assessed as cell viability incubated for 96 hrs by CCK8 assay; conditions: MCF7, 96 h
[21] = tested on: MCF7; test: In vivo PROTAC activity in ERalpha/VHL E3 ligase in human MCF7 cell xenografted in Balb/c mouse model assessed as reduction in ERalpha level in tumor at 5 mg/kg, ip every other day measured upto 20 days; assay type: functional, organism-based; conditions: time <= 20.0 day
[22] = tested on: MCF7; test: In vivo PROTAC activity in aromatase/VHL E3 ligase in human MCF7 cell xenografted in Balb/c mouse model assessed as reduction in ARO level in tumor at 5 mg/kg, ip every other day measured upto 20 days; assay type: functional, organism-based; conditions: time <= 20.0 day
[23] = tested on: MCF7; test: Antiproliferative activity against human resistant MCF7 cells harboring ERalpha Y537S mutant at LBD assessed as cell viability incubated for 96 hrs by CCK8 assay; conditions: MCF7, 96 h
[24] = tested on: MCF7; test: Induction of degradation of MYC protein in human MCF7 cells harboring EGFR at 0.5 to 5 uM by Western blot analysis; assay type: functional, cell-based; conditions: dose 0.5-5 µM
[25] = molecular target: T2, Aromatase (Homo sapiens, UniProt P11511); test: Inhibition of recombinant human aromatase using ARO substrate/NADP+ mixture by fluorescence assay
T2 sequence (P11511 whole entry): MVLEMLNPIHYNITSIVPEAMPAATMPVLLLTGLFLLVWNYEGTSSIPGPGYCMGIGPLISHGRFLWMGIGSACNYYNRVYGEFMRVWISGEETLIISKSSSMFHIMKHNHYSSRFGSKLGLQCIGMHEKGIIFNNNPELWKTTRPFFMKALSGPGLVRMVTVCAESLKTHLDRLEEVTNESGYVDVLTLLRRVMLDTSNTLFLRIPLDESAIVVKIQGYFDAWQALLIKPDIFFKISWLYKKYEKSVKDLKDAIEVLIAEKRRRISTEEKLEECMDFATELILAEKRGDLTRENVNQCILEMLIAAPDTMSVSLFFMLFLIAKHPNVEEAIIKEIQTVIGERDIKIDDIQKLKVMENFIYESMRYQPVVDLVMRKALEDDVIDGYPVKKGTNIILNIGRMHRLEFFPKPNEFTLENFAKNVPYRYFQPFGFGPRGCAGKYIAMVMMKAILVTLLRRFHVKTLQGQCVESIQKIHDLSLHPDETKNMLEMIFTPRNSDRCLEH

[26] = molecular target: Estrogen receptor beta (Homo sapiens, UniProt Q92731); test: Binding affinity to human ERbeta assessed as inhibition constant incubated under dark condition for 2 hrs by competitive fluorometric binding assay
[27] = tested on: MCF7; test: In vivo antitumor activity against human MCF7 cells xenografted in Balb/c mouse model assessed as reduction in number of Ki67 positive cells in tumor at 5 mg/kg, ip every other day measured upto 20 days; assay type: functional, organism-based; conditions: time <= 20.0 day
[28] = tested on: MCF7; test: Induction of cell cycle arrest in human MCF7 cells assessed as accumulation of cells at G2/M phase at 5 uM incubated for 48 hrs by flow cytometry (reference value: 54.10%); assay type: functional
[29] = Toxicity in Balb/c mouse xenografted with human MCF7 cells assessed as cellular morphology in spleen at 5 mg/kg, ip every other day measured upto 20 days; assay type: organism-based; conditions: in vivo, 480 h, time < 20 day
[30] = tested on: MCF7; test: Reduction in MYC mRNA expression in resistant human MCF7 cells harboring ERalpha Y537S mutant at 5 uM by real-time quantitative polymerase chain reaction (RT-qPCR) analysis; assay type: functional, cell-based
[31] = tested on: MCF7; test: Reduction in ERS1 mRNA expression in resistant human MCF7 cells at 5 uM by real-time quantitative polymerase chain reaction (RT-qPCR) analysis; assay type: functional, cell-based
[32] = tested on: MCF7; test: Reduction in MYC mRNA expression in resistant human MCF7 cells at 5 uM by real-time quantitative polymerase chain reaction (RT-qPCR) analysis; assay type: functional, cell-based
[33] = molecular target: T1, von Hippel-Lindau disease tumor suppressor/Aromatase; test: PROTAC activity at human ARO/VHL E3 ligase in resistant human MCF-7 cells harboring EGFR assessed as degradation of ARO at 0.5 to 10 uM incubated for 24 hrs by Western blot analysis; assay type: cell-based; conditions: mcf7, 24 h, dose 0.5-10 µM

T1 sequence (P40337 whole entry, one chain of several): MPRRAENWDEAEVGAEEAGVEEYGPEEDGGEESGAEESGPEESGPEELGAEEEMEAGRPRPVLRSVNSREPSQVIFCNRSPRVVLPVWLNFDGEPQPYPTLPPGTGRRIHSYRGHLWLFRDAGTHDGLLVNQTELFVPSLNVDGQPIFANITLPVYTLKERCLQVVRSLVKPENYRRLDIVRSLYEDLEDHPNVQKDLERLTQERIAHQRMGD
Sequence of Estrogen receptor beta (Q92731 whole entry): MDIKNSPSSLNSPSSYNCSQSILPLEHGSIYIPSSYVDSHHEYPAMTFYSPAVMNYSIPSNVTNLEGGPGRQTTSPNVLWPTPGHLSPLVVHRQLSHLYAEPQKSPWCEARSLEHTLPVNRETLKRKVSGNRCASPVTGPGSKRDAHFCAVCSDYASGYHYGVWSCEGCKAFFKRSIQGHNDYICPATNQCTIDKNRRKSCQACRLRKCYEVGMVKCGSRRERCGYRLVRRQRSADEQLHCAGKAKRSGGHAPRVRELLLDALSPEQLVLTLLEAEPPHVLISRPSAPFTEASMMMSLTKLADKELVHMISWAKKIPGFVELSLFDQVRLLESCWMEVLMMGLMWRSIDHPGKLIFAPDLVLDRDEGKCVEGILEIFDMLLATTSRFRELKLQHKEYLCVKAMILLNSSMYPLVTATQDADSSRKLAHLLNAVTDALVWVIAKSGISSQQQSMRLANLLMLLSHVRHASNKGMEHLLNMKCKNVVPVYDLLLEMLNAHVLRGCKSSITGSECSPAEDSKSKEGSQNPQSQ

SMILES	Activity [4]	IC50 [6] [µM]	Activity [8]	Activity [9]	IC50 at 96 h [10] [µM]	Activity [11]	Activity [13]	IC50 [15] [µM]	Activity [16]	Activity [18]	IC50 [20] [µM]	IC50 [23] [µM]	IC50 [25] [µM]	Activity [30]	also measured
Cc1ncsc1-c1ccc([C@H](C)NC(=O)[C@@H]2C[C@@H](O)CN2C(=O)[C@@H](NC(=O)CCCCCOc2ccc(N(CC(F)(F)F)S(=O)(=O)C3CC4OC3C(c3ccc(-n5ccnc5)cc3)=C4c3ccc(O)cc3)cc2)C(C)(C)C)cc1 (some centres not stated)	Dose-Dependent Effect	0.075	Active	Active	> 100	Active	Active	0.54	Active	Active	0.31	2.3	4.6	Active	Activity [1]: Active; Activity [2]: Non-Toxic; Activity [3]: Non-Toxic; Activity [5]: Active; Activity [7]: Non-Toxic; Activity [12]: Non-Toxic; Activity [14]: inactive; Activity [17]: inactive; Activity [19]: Not Active; Activity [21]: Active; Activity [22]: Active; Activity [24]: inactive; Ki [26]: > 79 µM; Activity [27]: Active; Activity [28]: 66.31%; Activity [29]: Non-Toxic
Cc1ncsc1-c1ccc([C@H](C)NC(=O)[C@@H]2C[C@@H](O)CN2C(=O)[C@@H](NC(=O)COCCOCCOc2ccc(N(CC(F)(F)F)S(=O)(=O)C3CC4OC3C(c3ccc(-n5ccnc5)cc3)=C4c3ccc(O)cc3)cc2)C(C)(C)C)cc1 (some centres not stated)	Dose-Dependent Effect	4.4	inactive	inactive	> 100	inactive	Active	0.35	Active	Active	10	2.1	0.32	Active	Activity [31]: inactive; Activity [32]: inactive; Activity [33]: Active

Reference: ChEMBL document CHEMBL5512683, “Discovery of Novel ERα and Aromatase Dual-Targeting PROTAC Degraders to Overcome Endocrine-Resistant Breast Cancer” (J Med Chem, 2024)
